Measured values as given in ChEMBL document CHEMBL3046085, “Synthesis, characterization and in vitro cytotoxic properties of some new Schiff and Mannich bases in Hep G2 cells” (Med Chem Res, 2011).
≈ marks a conversion by molar mass, not a printed value.

Tests used:
HepG2 [1] = experiment: Cytotoxicity against Homo sapiens (human) HepG2 cells after 24 hr by MTT assay; assay type: functional, cell-based; details: HepG2, 24 h
HepG2 [2] = experiment: Cytotoxicity against Homo sapiens (human) HepG2 cells assessed as cell survival at 0.1 g/l after 24 hr by MTT assay (reference value: 78.07 +/- 1.89 to 95.31 +/- 3.09%); assay type: functional; details: HepG2, 24 h, read-out: Survival
HepG2 [3] = experiment: Cytotoxicity against Homo sapiens (human) HepG2 cells assessed as cell survival at 0.01 g/l after 24 hr by MTT assay (reference value: 78.07 +/- 1.89 to 95.31 +/- 3.09%); assay type: functional; details: HepG2, 24 h, read-out: Survival
HepG2 [4] = experiment: Cytotoxicity against Homo sapiens (human) HepG2 cells assessed as cell survival at 0.001 g/l after 24 hr by MTT assay (reference value: 78.07 +/- 1.89 to 95.31 +/- 3.09%); assay type: functional; details: HepG2, 24 h, read-out: Survival
HepG2 [5] = experiment: Cytotoxicity against Homo sapiens (human) HepG2 cells assessed as cell survival at 0.0001 g/l after 24 hr by MTT assay (reference value: 78.07 +/- 1.89 to 95.31 +/- 3.09%); assay type: functional; details: HepG2, 24 h, read-out: Survival

Row | Structure (SMILES) | IC50 (HepG2 [1]) [µg/mL] | further results
1 | COc1cccc2c1C(=O)c1c(O)c3c(c(O)c1C2=O)C[C@@](O)(C(=O)CO)C[C@@H]3O[C@H]1C[C@H](N)[C@H](O)[C@H](C)O1 [DOXORUBICIN] | 17 (≈ 31.3 µM) | viability at 100 µg/mL (HepG2 [2]): 35.9%; viability at 10 µg/mL (HepG2 [3]): 51.2%; viability at 1 µg/mL (HepG2 [4]): 74.2%; viability at 0.1 µg/mL (HepG2 [5]): 90%
2 | Cc1ccc(OCc2nn(CN3CCOCC3)c(=S)n2/N=C/c2c[nH]nc2-c2ccc(F)cc2)cc1 | 34 (≈ 67 µM) | –
3 | Cc1ccc(OCc2nn(CN(c3ccccc3)c3ccccc3)c(=S)n2/N=C/c2c[nH]nc2-c2ccc(Cl)cc2)cc1 | 97 (≈ 160 µM) | –
4 | Cc1ccccc1OCc1nn(CN2CCOCC2)c(=S)n1/N=C/c1c[nH]nc1-c1ccc(Cl)cc1 | 54 (≈ 103 µM) | –
5 | S=c1[nH]nc(COc2ccccc2)n1/N=C/c1c[nH]nc1-c1ccc(Cl)cc1 | 18 (≈ 43.8 µM) | –
6 | Cc1ccc(OCc2n[nH]c(=S)n2/N=C/c2c[nH]nc2-c2ccc(F)cc2)cc1 | 45 (≈ 110 µM) | –
7 | Cc1ccc(OCc2n[nH]c(=S)n2/N=C/c2c[nH]nc2-c2ccc(Cl)cc2)cc1 | 28 (≈ 65.9 µM) | –
8 | Fc1ccc(-c2n[nH]cc2/C=N/n2c(COc3ccccc3Cl)n[nH]c2=S)cc1 | 71 (≈ 166 µM) | –
9 | Cc1ccc(OCc2nn(CN3CCOCC3)c(=S)n2/N=C/c2c[nH]nc2-c2ccc(Cl)cc2)cc1 | 54 (≈ 103 µM) | –
10 | CCc1n[nH]cc1/C=N/n1c(COc2ccc(C)cc2)n[nH]c1=S | > 100 | –
11 | Fc1ccc(-c2n[nH]cc2/C=N/n2c(COc3ccccc3)n[nH]c2=S)cc1 | 71 (≈ 180 µM) | –
12 | Cc1ccccc1OCc1n[nH]c(=S)n1/N=C/c1c[nH]nc1-c1ccc(Cl)cc1 | 44 (≈ 104 µM) | –
13 | Cc1ccc(OCc2nn(CN(c3ccccc3)c3ccccc3)c(=S)n2/N=C/c2c[nH]nc2-c2ccc(F)cc2)cc1 | 90 (≈ 153 µM) | –
14 | Cc1ccccc1OCc1n[nH]c(=S)n1/N=C/c1c[nH]nc1-c1ccc(F)cc1 | 48 (≈ 118 µM) | –
